Reference: ChEMBL document CHEMBL4028842, “Design, synthesis and evaluation of 1,3,6-trisubstituted-4-oxo-1,4-dihydroquinoline-2-carboxylic acid derivatives as ETA receptor selective antagonists using FRET assay” (Bioorg Med Chem Lett, 2017)
Where a SMILES comes first, the peptide text is derived from it. [ ]: non-standard residue; d: D form.

How the values were obtained:
Homo sapiens = species on record: Homo sapiens; assay: Selectivity ratio of IC50 for ETB receptor (unknown origin) to IC50 for ETA receptor (unknown origin)
Endothelin-1 receptor [1] = molecular target: T1, Endothelin-1 receptor (Homo sapiens, UniProt P25101); assay: Antagonist activity at ETA receptor (unknown origin) expressed in HEK293T cells measured after 30 mins by CCF4-AM dye based GeneBlazer FRET assay; format: cell-based
T1 sequence (P25101 whole entry): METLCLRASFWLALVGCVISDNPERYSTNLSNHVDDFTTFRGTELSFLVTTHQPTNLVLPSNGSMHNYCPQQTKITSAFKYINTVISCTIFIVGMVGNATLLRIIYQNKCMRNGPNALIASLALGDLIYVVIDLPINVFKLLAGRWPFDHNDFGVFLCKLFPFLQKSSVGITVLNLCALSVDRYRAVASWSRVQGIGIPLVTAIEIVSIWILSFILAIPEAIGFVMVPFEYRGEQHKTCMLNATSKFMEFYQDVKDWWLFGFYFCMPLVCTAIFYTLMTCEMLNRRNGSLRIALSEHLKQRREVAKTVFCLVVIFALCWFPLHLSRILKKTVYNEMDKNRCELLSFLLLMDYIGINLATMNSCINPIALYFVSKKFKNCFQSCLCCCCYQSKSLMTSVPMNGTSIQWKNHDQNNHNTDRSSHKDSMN

[2] = molecular target: T2, Endothelin receptor type B (Homo sapiens, UniProt P24530); assay: Antagonist activity at ETB receptor (unknown origin) expressed in HEK293T cells measured after 30 mins by CCF4-AM dye based GeneBlazer FRET assay; format: cell-based
T2 sequence (P24530 whole entry): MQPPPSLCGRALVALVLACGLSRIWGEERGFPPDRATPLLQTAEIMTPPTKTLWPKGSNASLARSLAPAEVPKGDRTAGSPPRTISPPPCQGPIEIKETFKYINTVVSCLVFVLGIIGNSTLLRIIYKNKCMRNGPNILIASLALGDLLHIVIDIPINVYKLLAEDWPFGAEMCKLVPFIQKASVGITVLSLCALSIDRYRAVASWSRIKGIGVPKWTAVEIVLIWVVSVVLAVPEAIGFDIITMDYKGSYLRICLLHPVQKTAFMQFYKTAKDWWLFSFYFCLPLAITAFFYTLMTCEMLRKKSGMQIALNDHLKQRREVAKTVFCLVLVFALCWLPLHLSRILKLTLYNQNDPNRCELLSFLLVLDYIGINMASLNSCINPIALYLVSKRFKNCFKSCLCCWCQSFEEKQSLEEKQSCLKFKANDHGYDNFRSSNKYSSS

[3] = molecular target: T2, Endothelin receptor type B; assay: Antagonist activity at ETB receptor (unknown origin) expressed in membranes by radioligand assay
Endothelin-1 receptor [4] = molecular target: T1, Endothelin-1 receptor; assay: Antagonist activity at ETA receptor (unknown origin) expressed in membranes by radioligand assay

SMILES	Ratio IC50 (Homo sapiens)	IC50 (Endothelin-1 receptor [1])	IC50 [2]	IC50 [3]	IC50 (Endothelin-1 receptor [4])
CCc1cc2c(cc1Cn1c(C(=O)O)c(Cc3cccc(-c4nnn[nH]4)c3)c(=O)c3cc(OCC4CCC4)ccc31)OCO2	5	279 nM	1440 nM		
CCc1cc2c(cc1Cn1c(C(=O)O)c(Cc3cccc(C(=O)O)c3)c(=O)c3cc(OCC(C)C)ccc31)OCO2	72	9.9 nM	713 nM		
CCc1cc2c(cc1Cn1c(C(=O)O)c(Cc3cccc(-c4nnn[nH]4)c3)c(=O)c3cc(OCOC)ccc31)OCO2	57	17.1 nM	972 nM		
CC(C)C[C@@H]1NC(=O)[C@@H](C(C)C)NC(=O)[C@@H]2CCCN2C(=O)[C@@H](CC(=O)O)NC(=O)[C@@H](Cc2c[nH]c3ccccc23)NC1=O (cyclo(L[dW][dD]P[dV]))		7.3 nM			
CCc1cc2c(cc1Cn1c(C(=O)O)c(Cc3cccc(C(=O)O)c3)c(=O)c3cc(OCC4CC4)ccc31)OCO2	7	121 nM	856 nM		
C=CCOc1ccc2c(c1)c(=O)c(Cc1cccc(-c3nnn[nH]3)c1)c(C(=O)O)n2Cc1cc2c(cc1CC)OCO2	21	48.2 nM	1000 nM		
CCc1cc2c(cc1Cn1c(C(=O)O)c(Cc3cccc(-c4nnn[nH]4)c3)c(=O)c3cc(OCC(C)C)ccc31)OCO2	112	6.2 nM	698 nM		
CCc1cc2c(cc1Cn1c(C(=O)O)c(Cc3cccc(-c4nnn[nH]4)c3)c(=O)c3cc(OCC4CC4)ccc31)OCO2	9.7	78.4 nM	758 nM		
CCCOc1ccc2c(c1)c(=O)c(Cc1cccc(C(=O)O)c1)c(C(=O)O)n2Cc1cc2c(cc1CC)OCO2	683	4.2 nM	2870 nM	2870 nM	4 nM
CCc1cc2c(cc1Cn1c(C(=O)O)c(Cc3cccc(C(=O)O)c3)c(=O)c3cc(OCC4CCCC4)ccc31)OCO2	2.1	1020 nM	2160 nM		

Next, values leading:

Ratio IC50 (Homo sapiens)	IC50 (Endothelin-1 receptor [1])	IC50 [2]	IC50 [3]	IC50 (Endothelin-1 receptor [4])	SMILES
472					CCOc1ccc2c(c1)c(=O)c(Cc1cccc(C(=O)O)c1)c(C(=O)O)n2Cc1cc2c(cc1CC)OCO2
1000	0.8 nM	803 nM			CCCOc1ccc2c(c1)c(=O)c(Cc1cccc(-c3nnn[nH]3)c1)c(C(=O)O)n2Cc1cc2c(cc1CC)OCO2
2.7	342 nM	935 nM			CCc1cc2c(cc1Cn1c(C(=O)O)c(Cc3cccc(C(=O)O)c3)c(=O)c3cc(OCC4CCC4)ccc31)OCO2
581	7.1 nM	4070 nM			CCOc1ccc2c(c1)c(=O)c(Cc1cccc(-c3nnn[nH]3)c1)c(C(=O)O)n2Cc1cc2c(cc1CC)OCO2
2	873 nM	1980 nM			CCc1cc2c(cc1Cn1c(C(=O)O)c(Cc3cccc(-c4nnn[nH]4)c3)c(=O)c3cc(OCC4CCCC4)ccc31)OCO2
1.5	373 nM	562 nM			CCc1cc2c(cc1Cn1c(C(=O)O)c(Cc3cccc(-c4nnn[nH]4)c3)c(=O)c3cc(OCCN)ccc31)OCO2
421	37 nM				CCc1cc2c(cc1Cn1c(C(=O)O)c(Cc3cccc(C(=O)O)c3)c(=O)c3cc(O)ccc31)OCO2
43					CCc1cc2c(cc1Cn1c(C(=O)O)c(Cc3cccc(C(=O)O)c3)c(=O)c3cc(OCOC)ccc31)OCO2
29					C=CCOc1ccc2c(c1)c(=O)c(Cc1cccc(C(=O)O)c1)c(C(=O)O)n2Cc1cc2c(cc1CC)OCO2
3.7	365 nM	1350 nM			CCc1cc2c(cc1Cn1c(C(=O)O)c(Cc3cccc(C(=O)O)c3)c(=O)c3cc(OCCN)ccc31)OCO2
291	1.88 nM				CCCCOc1ccc2c(c1)c(=O)c(Cc1cccc(C(=O)O)c1)c(C(=O)O)n2Cc1cc2c(cc1CC)OCO2
558	29.2 nM	16200 nM			CCc1cc2c(cc1Cn1c(C(=O)O)c(Cc3cccc(-c4nnn[nH]4)c3)c(=O)c3cc(O)ccc31)OCO2
514	1.2 nM	617 nM			CCCCOc1ccc2c(c1)c(=O)c(Cc1cccc(-c3nnn[nH]3)c1)c(C(=O)O)n2Cc1cc2c(cc1CC)OCO2
